Tests used:
[1] = system: Human ovarian cancer cell strain OVCAR-8; assay: MTT assay, inhibition of tumor cell growth in vitro, 72 h; format: cell-based; details: Homo sapiens, OVCAR-8, MTT, read-out: Antitumor proliferative activities of tumor cell (IC50, μM) OVCAR-8
Description: (§1) First, inhibitory activity on tumor proliferation in vitro is determined and the structure activity relationship is preliminarily studied, in which different solid tumor cell strains are selected for determining the antitumor activities in vitro of the synthesized compounds.
(§2) Cell strains: Human ovarian cancer cell strain (OVCAR8), colon adenocarcinoma cell strain (HCT-116)
Medium: OVCAR8: RPMI 1640+Fetal Bovine Serum
(§3) Preparing method of medicines: Dissolving the medicine in DMSO to make a 50 mM stock solution, and diluting it according to a certain ratio to obtain 5 different concentrations.
(§4) Two selected tumor cells OVCAR8 and HCT-116 are incubated at 37° C. in a 5% CO2 incubator, which are subcultured when cells grow up to a density of 70˜90% (adherent cells are subcultured after digesting by Duck's EDTA) for later experiments.
(§5) Compounds are dissolved and diluted by dimethyl sulfoxide (DMSO), and tumor cells OVCAR8 and HCT-116 are seeded in a 96-well plate at a density of 4000 cells/200 μl/well, 1 μl of the compounds are added to each well with the final concentration of 50 μM, 10 μM, 2 μM, 0.4 μM and 0.08 μM, which is incubated for 72 h at 37° C. in a 5% CO2 incubator with DMSO (1%) as blank control.
(§6) The calculating formula of cell inhibitory rate is: cell inhibitory rate %=(the OD value of the control group−the OD value of the medication group)/the OD value of the control group×100%, the half maximal inhibitory concentration (IC50) is obtained by Bliss method.

[2] = system: human colon cancer cell strain HCT-116; assay: as above; format: cell-based; details: Homo sapiens, HCT-116, MTT, read-out: Antitumor proliferative activities of tumor cell (IC50, μM) HCT-116 (converted)
Description: as §1, §2
HCT-116: RPMI 1640+Fetal Bovine Serum
as §3, §4, §5, §6

Akt1 = molecular target: T1, Akt1 (Homo sapiens, UniProt P31749); assay: AKT1/PKBα KinEASE FP Fluorescein Green Assay (fluorescence polarization kinase kit); format: biochemical; details: 1 h reaction, read-out: Inhibitory activities against Akt1 (IC50)
T1 construct: purchased 32-021
Description: Second, method for determining the inhibitory activities of substituted nitrogen-containing heterocyclic derivatives in the present invention against Akt1 enzyme:
The inhibitory activities of compounds against AKT1/PKBα are determined by using AKT1/PKBα KinEASE™ FP Fluorescein Green Assay (Green fluorescence detection system of Kinase).
Principle adopted by the fluorescence polarization detection of protein kinase B is a competitive reaction: the phosphorylated tracers labeled with fluorescence will compete with unlabeled phosphorylated products produced by reacting with protein kinase B to combine anti-serine antibodies. […] However, in the reaction mixture containing phosphorylated products, fewer tracers will combine with antibodies (fluorescent tracers are replaced from the antibodies), and signals sent our occur depolarizing. Therefore, the change of polarization is directly related to the activity of protein kinase B in the reaction.
Each of 0.25 μl of compounds with a concentration of 50 μM and the positive control are added to a 384-well plate at room temperature, and each sample is provided with three parallel wells, and then 10 μl of STK Substrate 3 Working Solution, 5 μl of AKT1/PKBα Working Solution, 10 μl of ATP Working Solution are added to each sample respectively, the mixtures are slightly vibrated and shaked for a few minutes. Reaction is carried out just after the adding 10 μl of ATP Working Solution, from this time, reacting for 1 h. After 1 h, 5 μl of STK Stop Mix and 5 μl of STK Antibody Mix are added to each sample respectively to stop the reaction. The samples are maintained for 4 h at room temperature after adding is completed, the polarization values of samples are determined by fluorescence polarization of Microplate Reader (Detection of the signals is valid within 24 h), the inhibitory rate of compounds against the enzyme is calculated by polarization value, and thereby IC50 is calculated.
Experiment is set up four control groups at the same time, which are Buffer Control Wells, Tracer Control Wells, No Enzyme Wells and blank control of dimethyl sulfoxide, respectively. Thus obtained data are used to calculate the inhibitory rate (the preparation methods of above various solution required for determining the activities of compounds against enzyme refer to the specification of the kit of AKT1/PKBα KinEASE™ FP Fluorescein Green Assay Catalog #32-021).

T1 sequence (P31749 whole entry): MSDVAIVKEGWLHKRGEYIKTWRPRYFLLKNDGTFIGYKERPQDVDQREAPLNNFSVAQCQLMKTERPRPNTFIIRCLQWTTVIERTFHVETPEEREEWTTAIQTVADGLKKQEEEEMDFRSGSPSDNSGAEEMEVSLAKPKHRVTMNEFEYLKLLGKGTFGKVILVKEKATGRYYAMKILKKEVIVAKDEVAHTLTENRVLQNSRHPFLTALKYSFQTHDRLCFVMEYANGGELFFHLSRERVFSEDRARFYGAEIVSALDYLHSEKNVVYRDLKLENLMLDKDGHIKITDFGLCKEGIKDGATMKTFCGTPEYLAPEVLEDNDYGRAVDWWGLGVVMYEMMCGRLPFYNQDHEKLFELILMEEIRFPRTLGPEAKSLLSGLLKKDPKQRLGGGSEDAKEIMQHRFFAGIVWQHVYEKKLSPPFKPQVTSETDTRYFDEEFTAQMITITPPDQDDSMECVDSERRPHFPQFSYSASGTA

Row | IC50 [1] | IC50 [2] | IC50 (Akt1) | Structure (SMILES)
1 | 0.78 µM | 0.56 µM | 0.8 nM | Cn1ncc(Cl)c1-c1cc(C(=O)N[C@@H]2CNC(CCN3CCCC(O)C3)C[C@H]2c2ccc(Cl)c(Cl)c2)oc1Cl (stereo partly drawn) [Compound 115, 5-chloro-4-(4-chloro-1-methyl-1H-pyrazol-5-yl)-N-((3S,4S)-4-(3,4-dichlorophenyl)-6-(2-(3-hydroxylpiperidin-1-yl)ethyl)piperidin-3-yl)furan-2-formamide]
2 | 9.53 µM | 4.51 µM | 362 nM | Cc1cc(C(=O)N[C@H]2CNCC[C@@H]2C2CCCC(Cl)C2)ncc1-c1c(Cl)cnn1C (stereo partly drawn) [Compound 56, 5-(4-chloro-1-methyl-1H-pyrazol-5-yl)-N-(3,4-trans-4-(3-chlorocyclohexane)piperidin-3-yl)-4-methylpyridinyl-2-formamide]
3 | 1.26 µM | 1.47 µM | 14 nM | Cn1ncc(Cl)c1-c1ccc(C(=O)N[C@@H]2CNCC[C@H]2c2cccc(F)c2)cc1Cl [Compound 86, 3-chloro-4-(4-chloro-1-methyl-1H-pyrazol-5-yl)-N-((3S,4S)-4-(3-fluorophenyl)piperidin-3-yl)benzamide]
4 | 1.34 µM | 0.92 µM | 6 nM | Cn1ncc(Br)c1-c1ccc(C(=O)N[C@@H]2CNCC[C@H]2c2ccc(Cl)cc2)cc1 [Compound 72, 4-(4-bromo-1-methyl-1H-pyrazol-5-yl)-N-((3S,4S)-4-(4-chlorophenyl)piperidin-3-yl)benzamide]
5 | 1.82 µM | 0.92 µM | 4 nM | CNC(=O)CC1C[C@@H](c2ccc(F)c(F)c2)[C@H](NC(=O)c2ccc(-c3c(Cl)cnn3C)cc2)CN1 (stereo partly drawn) [Compound 98]
6 | 9.43 µM | 4.06 µM | 452 nM | Cn1ncc(Br)c1-c1csc(C(=O)N[C@H]2CNCC[C@@H]2c2ccc(F)c(F)c2)c1 [Compound 41, 4-(4-bromo-1-methyl-1H-pyrazol-5-yl)-N-((3R,4R)-4-(3,4-difluorophenyl)piperidin-3-yl)thiophene-2-formamide]
7 | 0.92 µM | 4.28 µM | 3 nM | Cn1ncc(Cl)c1-c1cc(C(=O)N[C@@H]2CNC(CC(N)=O)C[C@H]2c2ccc(Cl)c(Cl)c2)oc1Cl (stereo partly drawn) [Compound 117, N-((3S,4S)-6-(2-amido-2-oxoethyl)-4-(3,4-dichlorophenyl)piperidin-3-yl)-5-chloro-4-(4-chloro-1-methyl-1H-pyrazol-5-yl)furan-2-formamide]
8 | 4.44 µM | 2.1 µM | 9 nM | Cn1ncc(Cl)c1-c1ccc(C(=O)N[C@@H]2CNCC[C@H]2c2ccc(Cl)c(C(F)(F)F)c2)c(F)c1 [Compound 84, 4-(4-chloro-1-methyl-1H-pyrazol-5-yl)-N-((3S,4S)-4-(4-chloro-3-(trifluoromethyl)phenyl)piperidin-3-yl)-2-fluorobenzamide]
9 | 1.82 µM | 5.89 µM | 17 nM | Cn1ncc(Br)c1-c1coc(C(=O)N[C@H]2CNCC[C@@H]2c2ccc(C(F)(F)F)cc2)c1 (racemic) [Compound 27, 4-(4-bromo-1-methyl-1H-pyrazol-5-yl)-N-(3,4-trans-4-(4-trifluoromethylphenyl)piperidin-3-yl)furan-2-formamide]
10 | 1.47 µM | 18.1 µM | 123 nM | Cn1nccc1-c1csc(C(=O)N[C@H]2CNCC[C@@H]2c2ccc(Cl)cc2)c1 (racemic) [Compound 32, 4-(1-methyl-1H-pyrazol-5-yl)-N-(3,4-trans-4-(4-chlorphenyl)piperidin-3-yl) thiophene-2-formamide]
11 | 1.41 µM | 2.82 µM | 0.6 nM | CNC(=O)CC1C[C@@H](c2ccc(F)c(F)c2)[C@H](NC(=O)c2ccc(-c3c(Cl)cnn3C)s2)CN1 (stereo partly drawn) [Compound 152, 5-(4-chloro-1-methyl-1H-pyrazol-5-yl)-N-((3S,4S)-4-(3,4-difluorophenyl)-6-(2-(methylamido)-2-oxoethyl)piperidin-3-yl)thiophene-2-formamide]
12 | 4.69 µM | 1.94 µM | 409 nM | Cn1ncc(Br)c1-c1csc(C(=O)N[C@H]2CNCC[C@@H]2c2ccc(F)c(F)c2)c1 (racemic) [Compound 38, 4-(4-bromo-1-methyl-1H-pyrazol-5-yl)-N-(3,4-trans-4-(3,4-difluorophenyl)piperidin-3-yl)thiophene-2-formamide]
13 | 0.07 µM | 0.49 µM | 4 nM | Cn1ncc(Cl)c1-c1cc(C(=O)N[C@@H]2CNC(CCCO)C[C@H]2c2ccc(Cl)c(Cl)c2)oc1Cl (stereo partly drawn) [Compound 111, 5-chloro-4-(4-chloro-1-methyl-1H-pyrazol-5-yl)-N-((3S,4S)-4-(3,4-dichlorophenyl)-6-(3-hydroxypropyl)piperidin-3-yl)furan-2-formamide]
14 | 14.3 µM | 3.45 µM | 58 nM | Cn1ncc(Cl)c1-c1cc(C(=O)N[C@H]2CNCC[C@@H]2c2ccc(Cl)c(Cl)c2)oc1Cl [Compound 39, 5-chloro-4-(4-chloro-1-methyl-1H-pyrazol-5-yl)-N-((3R,4R)-4-(3,4-dichlorophenyl)piperidin-3-yl)furan-2-formamide]
15 | 5.69 µM | 1.02 µM | 11 nM | Cn1ncc(Cl)c1-c1ccc(C(=O)N[C@@H]2CNCC[C@H]2c2c[nH]c3ccccc23)cc1Cl [Compound 89, N-((3S,4S)-4-(1H-indol-3-yl)piperidin-3-yl)-3-chloro-4-(4-chloro-1-methyl-1H-pyrazol-5-yl)benzamide]
16 | 0.04 µM | 0.08 µM | 0.7 nM | CC(O)c1cnn(C)c1-c1ccc(C(=O)N[C@@H]2CNCC[C@H]2c2cccc(F)c2)s1 (stereo partly drawn) [Compound 143, N-((3S, 4S)-4-(3-fluorophenyl)piperidin-3-yl)-5-(4-(1-hydroxyethyl)-1-methyl-1H-pyrazol-5-yl)thiophene-2-formamide]
17 | 1.94 µM | 0.56 µM | 51 nM | CNC(=O)CC1C[C@@H](c2ccc(F)c(F)c2)[C@H](NC(=O)c2cc(-c3c(Cl)cnn3C)c(Cl)o2)CN1 (stereo partly drawn) [Compound 105, 5-chloro-4-(4-chloro-1-methyl-1H-pyrazol-5-yl)-N-((3S,4S)-4-(3,4-difluorophenyl)-6-(2-(methylamido)-2-oxoethyl)piperidin-3-yl)furan-2-formamide]
18 | 0.14 µM | 1.72 µM | 3 nM | Cn1ncc(Cl)c1-c1cc(C(=O)N[C@@H]2CNC(CCO)C[C@H]2c2ccc(Cl)c(Cl)c2)oc1Cl (stereo partly drawn) [Compound 113, 5-chloro-4-(4-chloro-1-methyl-1H-pyrazol-5-yl)-N-((3S,4S)-4-(3,4-dichlorophenyl)-6-(2-hydroxyethyl)piperidin-3-yl)furan-2-formamide]
19 | 2.41 µM | 0.78 µM | 9 nM | Cn1ncc(Cl)c1-c1ccc(C(=O)N[C@@H]2CNCC[C@H]2c2ccc(Cl)c(C(F)(F)F)c2)nc1 [Compound 96, 5-(4-chloro-1-methyl-1H-pyrazol-5-yl)-N-((3S,4S)-4-(4-chloro-3-(trifluoromethyl)phenyl)piperidin-3-yl)picolinamide]
20 | 4.54 µM | 1.85 µM | 18 nM | Cn1ncc(Cl)c1-c1cc(C(=O)N[C@H]2CNCC[C@@H]2c2ccc(F)c(F)c2)oc1Cl (racemic) [Compound 31, 5-chloro-4-(4-chloro-1-methyl-1H-pyrazol-5-yl)-N-(3,4-trans-4-(3,4-difluorophenyl)piperidin-3-yl)furan-2-formamide]

Source: US10233180B2, “Substituted nitrogen-containing heterocyclic derivatives, pharmaceutical compositions comprising the same and applications of antitumor thereof” (ZHEJIANG UNIVERSITY, priority 2014, dated 2019)
